ChEMBL document CHEMBL5316270 (J Med Chem, 2023)
The source made the active and inactive calls. No cut-off for these calls is given here.

Legend:
Mus musculus [1] = test: In vivo inhibition of mTORC1 in human MCF7 cells harboring PIK3CA […] mutation xenografted in Balb/c nude mouse assessed as inhibition of tumor p4EBP1 level at 1 mg/kg,ip and measured at 4 hrs by MSD analysis; format: functional, organism-based
Mus musculus [2] = test: In vivo inhibition of mTORC1 in human MCF7 cells harboring PIK3CA […] mutation xenografted in Balb/c nude mouse assessed as inhibition of tumor p4EBP1 level at 1 mg/kg,ip and measured after 24 hrs by MSD analysis; format: functional, organism-based
mTORC1 [3] = biological target: T1, mTORC1 (Homo sapiens, UniProt P42345+Q8N122+Q9BVC4); format: cell-based, MDA-MB-468
mTORC1 [4] = biological target: T1, mTORC1; format: cell-based, MDA-MB-468; remark: listed apart in the source
cells = format: cell-based; details: Homo sapiens, MDA-MB-468
NCI-H2122 [5] = test: Antitumor activity against human NCI-H2122 cells harboring KRAS G12C mutation xenografted in Balb/c nude mouse assessed as reduction in tumor volume at 100 mg/kg,ip qd by caliper measurement analysis; format: functional, organism-based
NCI-H2122 [6] = test: Antitumor activity against human NCI-H2122 cells harboring KRAS G12C mutation xenografted in Balb/c nude mouse assessed as reduction in tumor volume at 100 mg/kg,ip qd co-treated with RMC-627 at 10 mg/kg,ip qw by caliper measurement analysis; format: functional, organism-based
[7] = Toxicity in Balb/c nude mouse xenografted with human NCI-H2122 cells harboring KRAS G12C mutation assessed as body weight loss at 100 mg/kg,ip qd co-treated with RMC-627 at 10 mg/kg,ip qw; format: organism-based; details: in vivo
NCI-H2122 [8] = test: Antitumor activity against human NCI-H2122 cells harboring KRAS G12C mutation xenografted in Balb/c nude mouse assessed as induction of apoptosis by measuring caspase-3 level at 100 mg/kg,ip qd co-treated with RMC-627 at 10 mg/kg,ip qw by immunostaining based microscopy; format: functional, organism-based
NCI-H2122 [9] = test: Antitumor activity against human NCI-H2122 cells harboring KRAS G12C mutation xenografted in Balb/c nude mouse assessed as induction of apoptosis by measuring caspase-3 level at 100 mg/kg,ip qd by immunostaining based microscopy; format: functional, organism-based
Mus musculus [10] = test: In vivo inhibition of mTORC1 in human MCF7 cells harboring PIK3CA […] mutation xenografted in Balb/c nude mouse assessed as inhibition of tumor p4EBP1 level at 5 mg/kg,po and measured upto 48 hrs by MSD analysis; format: functional, organism-based

IC50 (mTORC1 [3]) [nM] | IC50 (mTORC1 [4]) [nM] | IC50 (cells) [nM] | SMILES | also measured
– | – | – | CC(C)n1nc(-c2ccc3oc(N)nc3c2)c2c(N)ncnc21 | inhibition (Mus musculus [1]): Active; inhibition (Mus musculus [2]): inactive
0.49 | 1.4 | 8.4 | CO[C@H]1C[C@@H]2CC[C@@H](C)[C@@](O)(O2)C(=O)C(=O)N2CCCC[C@H]2C(=O)O[C@H]([C@H](C)C[C@@H]2CC[C@@H](OC(=O)NCCOCCOCCOCCOCCOCCOCCOCCOCCC(=O)NCCCCn3nc(-c4ccc5oc(N)nc5c4)c4c(N)ncnc43)[C@H](OC)C2)C[C@@H](OC)[C@H](C)/C=C(\C)[C@@H](O)[C@@H](OC)C(=O)[C@H](C)C[C@H](C)/C=C/C=C/C=C/1C | –
– | – | – | C=CC(=O)N1CCN(c2nc(=O)n(-c3c(C)ccnc3C(C)C)c3nc(-c4c(O)cccc4F)c(F)cc23)[C@@H](C)C1 [SOTORASIB] | Activity (NCI-H2122 [5]): inactive; Activity (NCI-H2122 [6]): Active; Activity [7]: Non-Toxic; Activity (NCI-H2122 [8]): Active; Activity (NCI-H2122 [9]): inactive
– | > 1000 | – | CO[C@H]1C[C@@H]2CC[C@@H](C)[C@@](O)(O2)C(=O)C(=O)N2CCCC[C@H]2C(=O)O[C@H]([C@H](C)C[C@@H]2CC[C@@H](OCCO)[C@H](OC)C2)CC(=O)[C@H](C)/C=C(\C)[C@@H](O)[C@@H](OC)C(=O)[C@H](C)C[C@H](C)/C=C/C=C/C=C/1C [EVEROLIMUS] | inhibition (Mus musculus [10]): inactive
0.19 | 0.97 | 35 | CO[C@H]1C[C@@H]2CC[C@@H](C)[C@@](O)(O2)C(=O)C(=O)N2CCCC[C@H]2C(=O)O[C@H]([C@H](C)C[C@@H]2CC[C@@H](OC(=O)NCCOCCOCCOCCOCCOCCOCCOCCOCCC(=O)NCCS(=O)(=O)c3ccc(C(=O)N4CCOc5ccc(-c6ccc(N)nc6)cc5C4)c(C)c3F)[C@H](OC)C2)C[C@@H](O)[C@H](C)/C=C(\C)[C@@H](O)[C@@H](OC)C(=O)[C@H](C)C[C@H](C)/C=C/C=C/C=C/1C | –
0.24 | 1.3 | 13 | CO[C@H]1C[C@@H]2CC[C@@H](C)[C@@](O)(O2)C(=O)C(=O)N2CCCC[C@H]2C(=O)O[C@H]([C@H](C)C[C@@H]2CC[C@@H](OC(=O)NCCOCCOCCOCCOCCOCCOCCOCCOCCC(=O)NCCCCn3nc(-c4ccc5oc(N)nc5c4)c4c(N)ncnc43)[C@H](OC)C2)C[C@@H](O)[C@H](C)/C=C(\C)[C@@H](O)[C@@H](OC)C(=O)[C@H](C)C[C@H](C)/C=C/C=C/C=C/1C | –
– | > 1000 | – | CO[C@H]1C[C@@H]2CC[C@@H](C)[C@@](O)(O2)C(=O)C(=O)N2CCCC[C@H]2C(=O)O[C@H]([C@H](C)C[C@@H]2CC[C@@H](OCCCCc3cn(CCOCCOCCOCCOCCOCCOCCOCCOCCC(=O)NCCCCn4nc(-c5ccc6oc(N)nc6c5)c5c(N(C)C)ncnc54)nn3)[C@H](OC)C2)CC(=O)[C@H](C)/C=C(\C)[C@@H](O)[C@@H](OC)C(=O)[C@H](C)C[C@H](C)/C=C/C=C/C=C/1C | –
0.17 | 1.6 | 35 | CO[C@H]1C[C@@H]2CC[C@@H](C)[C@@](O)(O2)C(=O)C(=O)N2CCCC[C@H]2C(=O)O[C@H]([C@H](C)C[C@@H]2CC[C@@H](OC(=O)NCCOCCOCCOCCOCCOCCOCCOCCOCCC(=O)N3CCc4cc(Cn5nc(-c6ccc7oc(N)nc7c6)c6c(N)ncnc65)ccc4C3)[C@H](OC)C2)C[C@@H](O)[C@H](C)/C=C(\C)[C@@H](O)[C@@H](OC)C(=O)[C@H](C)C[C@H](C)/C=C/C=C/C=C/1C [RMC-5552] | –

SMILES | IC50 (mTORC1 [3]) [nM] | IC50 (mTORC1 [4]) [nM] | IC50 (cells) [nM] | also measured
CC(C)n1nc(-c2cc3cc(O)ccc3[nH]2)c2c(N)ncnc21 | – | – | 38 | –
